Measured values published in the supplement of paper PMC12317010.
Counter-ions that a name gives are not always drawn.

Test: collision cross section in nitrogen (drift tube, single-field); higher = larger gas-phase ion size
[1] = ion type: [M-H], ion source: ESI, ion mode: Negative
[2] = ion type: [M+Na], ion source: ESI, ion mode: Positive
[3] = ion type: [M+H], ion source: APCI, ion mode: Positive
[4] = ion type: [M+H], ion source: ESI, ion mode: Positive
[5] = ion type: [M+], ion source: APCI, ion mode: Positive
[6] = ion source: ESI, ion mode: Positive, ion type: [M]+ (permanent cation)
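Note: chemical standards at 10 µM analysed by drift tube IMS-QTOF MS in about 3.95 torr nitrogen, mean of duplicate injections differing ≤1%, mass error below 10 ppm.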

collision cross section in nitrogen [1] [Å²] | collision cross section in nitrogen [2] [Å²] | collision cross section in nitrogen [3] [Å²] | collision cross section in nitrogen [4] [Å²] | SMILES | other results
141.6 | – | – | – | O=S(=O)(O)c1cccc2ccccc12 [Sodium 1-naphthalenesulfonate] | –
173 | – | – | – | NS(=O)(=O)c1cc(C(=O)O)c(NCc2ccco2)cc1Cl [Furosemide] | –
187.7 | – | 202.8 | – | COc1cc(/C=C/C(=O)CC(=O)/C=C/c2ccc(O)c(OC)c2)ccc1O [Curcumin] | –
– | 168.6 | – | – | CCCOC(=O)CCCCC(=O)OCCC [Dipropyl hexanedioate] | –
148.4 | – | 148.6 | 148.8 | CCCCNC(=S)NCCCC [N,N'-Dibutylthiourea] | –
– | – | – | 164 | CCCCCCCCCCCCN [Dodecylamine hydrochloride] | –
155.8 | – | – | – | CCC(=O)/C=C/C1C(C)=CCCC1(C)C (centres undefined) [Methylionone] | –
– | – | 201.5 | 200.3 | C=C1C[C@H]2[C@@H]3C=C(C)C4=CC(=O)CC[C@]4(C)[C@H]3CC[C@]2(C)[C@@]1(OC(C)=O)C(C)=O [Melengestrol acetate] | –
125.6 | – | – | – | S=c1[nH]c(=S)[nH]c(=S)[nH]1 [Trisodium 2,4,6-trithioxo-1,3,5-triazinane-1,3,5-triide] | –
– | – | 143.4 | 143.9 | Nc1ccc2cc3ccc(N)cc3nc2c1 [Proflavin hydrochloride] | –
198.1 | 226.8 | 204.7 | 203.3 | CC(C)(C)NC(=O)[C@H]1CC[C@H]2[C@@H]3CC[C@H]4NC(=O)C=C[C@]4(C)[C@H]3CC[C@]12C [Finasteride] | –
– | 157.1 | – | – | Nc1ccn([C@@H]2O[C@H](CO)[C@@H](O)[C@@H]2O)c(=O)n1 [Cytarabine hydrochloride] | –
160.4 | – | – | – | O=C(Nc1ccc2c(c1)Cc1ccccc1-2)C(F)(F)F [N-(2-Fluorenyl)-2,2,2-trifluoroacetamide] | collision cross section in nitrogen [5]: 156.6 Å²
245.2 | 232.5 | – | – | COc1ccc([C@@H]2CC(=O)c3c(O)cc(O[C@@H]4O[C@H](CO[C@@H]5O[C@@H](C)[C@H](O)[C@@H](O)[C@H]5O)[C@@H](O)[C@H](O)[C@H]4O)cc3O2)cc1OC [Methyl hesperidin] | –
– | – | 142.7 | 143.4 | CCCOC(=O)NCCCN(C)C [Propamocarb hydrochloride] | –
169 | – | – | – | O=C(Nc1ccc(Cl)cc1)Nc1ccc(Cl)c(Cl)c1 [Triclocarban] | –
141.6 | – | 139.3 | – | O=C(O)C(=O)Cc1c[nH]c2ccccc12 [Indole-3-pyruvic acid] | –
– | 195.1 | 187.9 | 187.4 | CCOC(=O)N1CCC(=C2c3ccc(Cl)cc3CCc3cccnc32)CC1 [Loratadine] | –
– | 187.8 | – | 169.5 | CCOC(=O)C1=NOC(c2ccccc2)(c2ccccc2)C1 [Ethyl 5,5-diphenyl-2-isoxazoline-3-carboxylate] | –
190.2 | 192 | 191 | 190.7 | CCOc1nc(F)cc2nc(S(=O)(=O)Nc3c(Cl)cccc3C(=O)OC)nn12 [Cloransulam-methyl] | –
145.4 | – | – | 142.7 | Nc1c2c(nc3ccccc13)CCCC2 [Tacrine] | –
– | 151.3 | – | – | CC(=O)OCCOCCOCCOC(C)=O [Triethylene glycol diacetate] | –
– | 177.8 | 176 | 175.7 | O=C(/C=C/C=C/c1ccc2c(c1)OCO2)N1CCCCC1 [Piperine] | –
125.4 | – | – | – | N[C@@H](CCC(=O)O)C(=O)O [Sodium L-glutamate hydrate] | –
121.2 | – | – | – | O=C(O)c1ccccc1O [Salicylic acid] | –
– | 242.7 | 239.1 | 238 | O=C(CCCCCCCCc1cccnc1)N1CCC(C=C(c2ccccc2)c2ccccc2)CC1 [Ro 23-7637] | –

The next lines start with the compound.

SMILES | collision cross section in nitrogen [1] [Å²] | collision cross section in nitrogen [2] [Å²] | collision cross section in nitrogen [3] [Å²] | collision cross section in nitrogen [4] [Å²] | other results
O=[N+]([O-])c1ccc(O)cc1 [4-Nitrophenol] | 120.6 | – | – | – | –
O=C(O)CONC(=O)c1ccccc1 [Benzadox] | – | 150.9 | – | – | –
c1ccc(CCCc2ccncc2)cc1 [4-(3-Phenylpropyl)pyridine] | – | – | 145.9 | 146.1 | –
COP(=O)(OC)O/C(C)=C/C(=O)N(C)C [Dicrotophos] | – | 153.2 | 150.2 | – | –
CC(C)(COCC1CO1)COCC1CO1 (centres undefined) [Neopentyl glycol diglycidyl ether] | – | 148.2 | – | – | –
OCCC1CCCCN1 (centres undefined) [2-Piperidineethanol] | – | – | 125.7 | 126.6 | –
CN(C)CCCN1c2ccccc2Sc2ccc(Cl)cc21 [Chlorpromazine hydrochloride] | – | – | 170.8 | 171.2 | –
CCCCC(CC)COC(=O)c1c(Br)c(Br)c(Br)c(Br)c1C(=O)OCC(CC)CCCC (centres undefined) [Bis(2-ethylhexyl) tetrabromophthalate] | – | 240.6 | – | – | –
O=[N+]([O-])c1cc[n+]([O-])cc1 [4-Nitropyridine-1-oxide] | 119.2 | – | – | – | –
O=c1[nH]sc2ccccc12 [1,2-Benzisothiazolin-3-one] | 127.2 | – | – | – | –
CCCN(CCC)c1c([N+](=O)[O-])cc(S(N)(=O)=O)cc1[N+](=O)[O-] [Oryzalin] | 177.3 | – | – | – | –
Nc1nc[nH]n1 [Amitrole] | 113.2 | – | – | – | –
Cc1ccc(N)cc1S(=O)(=O)O [5-Amino-2-methylbenzenesulfonic acid] | 137.7 | – | – | – | –
CC1=CC(=O)NS(=O)(=O)O1 [Acesulfame potassium] | 125.1 | – | – | – | –
CC(C)(O)C(=O)Nc1ccc([N+](=O)[O-])c(C(F)(F)F)c1 [Hydroxyflutamide] | 157.4 | – | – | – | –
Cc1cc(Cc2cc(C)cc(C(C)(C)C)c2O)c(O)c(C(C)(C)C)c1 [2,2'-Methylenebis(4-methyl-6-tert-butylphenol)] | 195.4 | – | – | – | –
NS(=O)(=O)c1ccc(Cl)cc1 [4-Chlorobenzenesulphonamide] | 134.9 | – | – | – | –
O=S(=O)(O)c1cc(Cl)c(Cl)cc1Cl [2,4,5-Trichlorobenzenesulfonic acid] | 142.8 | – | – | – | –

SMILES | collision cross section in nitrogen [1] [Å²] | collision cross section in nitrogen [2] [Å²] | collision cross section in nitrogen [3] [Å²] | collision cross section in nitrogen [4] [Å²] | other results
NC(=O)c1ccc(N)cc1 [4-Aminobenzamide] | – | – | 126.4 | 126.5 | –
C[N+](C)(C)Cc1ccccc1 [Benzyltrimethylammonium chloride] | – | – | – | – | collision cross section in nitrogen [6]: 131.9 Å²
COc1nc(NC(C)C)nc(NC(C)C)n1 [Prometon] | – | 173.7 | 156.1 | 156.5 | –
Fc1ccc(Oc2ccnc3cc(Cl)cc(Cl)c23)cc1 [Quinoxyfen] | – | – | 165.8 | 165.5 | –
CCc1ccc(O)cc1 [4-Ethylphenol] | 128.7 | – | – | – | collision cross section in nitrogen [5]: 123.4 Å²
C[C@H]1C[C@H]2[C@@H]3CCC4=CC(=O)C=C[C@]4(C)[C@@]3(F)[C@@H](O)C[C@]2(C)[C@@]1(O)C(=O)CO [Betamethasone] | – | 215.2 | – | 177.2 | –
O=S(=O)(NS(=O)(=O)C(F)(F)F)C(F)(F)F [Lithium bis[(trifluoromethyl)sulfonyl]azanide] | 129.9 | – | – | – | –
CNC(=O)[C@H]1O[C@@H](n2cnc3c(NCc4cc(Cl)ccc4OCc4cc(C)no4)ncnc32)[C@H](O)[C@@H]1N | – | 223.6 | 216.1 | 216.2 | –
CCCCCCCCCCCCCOC(=O)c1ccccc1C(=O)OCCCCCCCCCCCCC [Ditridecyl phthalate (mixture of branched chain isomers)] | – | 244.3 | – | – | –
CCCC[N+](CCCC)(CCCC)CCCC [Tetrabutylammonium bromide] | – | – | – | – | collision cross section in nitrogen (ion source: APCI, ion mode: Positive, ion type: [M]+ (permanent cation)): 167.2 Å²; collision cross section in nitrogen [6]: 168 Å²
Nc1nc2nc[nH]c2c(=S)[nH]1 [6-Thioguanine] | 128.9 | 142.3 | 132.4 | 133.4 | –
CN(C)C(=O)C(c1ccccc1)c1ccccc1 [Diphenamid] | – | 164.6 | 154.1 | 154.7 | –
CN(C)CCC(c1ccc(Cl)cc1)c1ccccn1 (centres undefined) [Chlorpheniramine maleate] | – | – | 164 | 164.6 | –
CC(=O)c1ccc(O)cc1 [4-Hydroxyacetophenone] | 125.5 | – | – | – | –
CC1C(C)(C)C2=C(C(=O)CCC2)C1(C)C (centres undefined) [Cashmeran] | 154.6 | – | – | – | –
Oc1ccc2c(c1)-c1ccccc1C2 [3-Hydroxyfluorene] | 142.4 | – | – | – | –
Cc1ccccc1OP(=O)(Oc1ccccc1C)Oc1ccccc1C [Tri-o-cresyl phosphate] | – | 192.7 | 182.7 | 182.3 | –
CCN(CC)c1ccc2c(C)cc(=O)oc2c1 [7-Diethylamino-4-methylcoumarin] | 159.4 | 176.4 | 152.6 | 152.6 | –
